Measured values taken from US11993599B2, “Therapeutic compounds” (Genentech, Inc., priority 2021, dated 2024).

Experiments:
[1] = molecular target: T1, BRG1 (Homo sapiens, UniProt P51532); assay: Immunofluorescence assay for BRG1 degradation in SW1573 cells; assay type: cell-based; details: 20 hours incubation; for DC50: immunofluorescence mean nuclear signal, read-out: BRG1 IF Degradation IC50; for Dmax: SW1573, 20 h, normalized to a known degrader control, read-out: BRG1 IF Degradation Sinf (%)
T1 construct: either BRM primary antibody (Cell signaling Cat #11966) or BRG primary antibody (Abcam, ab 110641); endogenous in cells; host or cells: SW1573
T1 sequence (P51532 whole entry): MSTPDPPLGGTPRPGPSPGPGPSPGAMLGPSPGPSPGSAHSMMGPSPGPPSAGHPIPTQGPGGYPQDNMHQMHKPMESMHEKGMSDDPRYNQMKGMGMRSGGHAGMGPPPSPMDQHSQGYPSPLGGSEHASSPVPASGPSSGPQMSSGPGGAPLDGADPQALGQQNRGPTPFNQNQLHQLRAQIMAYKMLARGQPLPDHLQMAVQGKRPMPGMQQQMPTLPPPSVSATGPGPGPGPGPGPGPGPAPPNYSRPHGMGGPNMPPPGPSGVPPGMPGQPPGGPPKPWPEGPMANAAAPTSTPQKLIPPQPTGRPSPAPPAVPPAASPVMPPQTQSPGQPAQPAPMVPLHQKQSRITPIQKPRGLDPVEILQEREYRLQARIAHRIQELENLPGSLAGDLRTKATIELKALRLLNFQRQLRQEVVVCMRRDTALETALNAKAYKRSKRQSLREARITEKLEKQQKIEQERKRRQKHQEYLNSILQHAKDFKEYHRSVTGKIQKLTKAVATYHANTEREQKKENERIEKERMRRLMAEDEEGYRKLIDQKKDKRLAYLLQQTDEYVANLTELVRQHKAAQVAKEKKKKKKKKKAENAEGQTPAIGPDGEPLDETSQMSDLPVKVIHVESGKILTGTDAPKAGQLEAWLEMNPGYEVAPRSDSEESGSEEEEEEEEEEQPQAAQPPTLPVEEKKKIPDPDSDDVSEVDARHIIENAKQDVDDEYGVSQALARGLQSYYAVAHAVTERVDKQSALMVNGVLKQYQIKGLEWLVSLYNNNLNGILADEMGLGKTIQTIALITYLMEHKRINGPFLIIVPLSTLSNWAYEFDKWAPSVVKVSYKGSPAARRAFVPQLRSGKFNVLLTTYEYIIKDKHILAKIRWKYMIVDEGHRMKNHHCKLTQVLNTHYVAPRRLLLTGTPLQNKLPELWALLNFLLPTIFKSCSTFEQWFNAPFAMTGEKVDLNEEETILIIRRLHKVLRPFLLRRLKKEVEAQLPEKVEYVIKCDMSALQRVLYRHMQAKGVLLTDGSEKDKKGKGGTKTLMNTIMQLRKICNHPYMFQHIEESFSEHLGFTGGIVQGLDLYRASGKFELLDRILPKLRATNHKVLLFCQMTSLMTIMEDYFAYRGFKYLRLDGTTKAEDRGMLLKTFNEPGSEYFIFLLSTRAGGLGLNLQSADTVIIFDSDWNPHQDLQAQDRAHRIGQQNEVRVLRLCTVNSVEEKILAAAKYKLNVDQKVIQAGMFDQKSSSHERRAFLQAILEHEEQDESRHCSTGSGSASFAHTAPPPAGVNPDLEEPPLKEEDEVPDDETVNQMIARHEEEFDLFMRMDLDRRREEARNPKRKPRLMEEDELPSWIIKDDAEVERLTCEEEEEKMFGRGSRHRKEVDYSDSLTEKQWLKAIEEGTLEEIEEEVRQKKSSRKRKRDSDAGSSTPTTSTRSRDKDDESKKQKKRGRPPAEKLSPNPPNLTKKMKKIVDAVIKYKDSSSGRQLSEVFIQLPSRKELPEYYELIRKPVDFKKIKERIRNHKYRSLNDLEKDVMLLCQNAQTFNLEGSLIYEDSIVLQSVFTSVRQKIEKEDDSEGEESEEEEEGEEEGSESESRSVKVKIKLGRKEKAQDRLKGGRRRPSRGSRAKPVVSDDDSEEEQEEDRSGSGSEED
Procedure: (§1) Example B-2: Immunofluorescence Assay for BRM and BRG1 Degraders
(§2) SW1573 cells were seeded at 3000 cells/well in 384 well plates. The next day, compounds were added using an Echo dispenser. After 20 hours of incubation with compound, cells were fixed with 4% formaldehyde then permeabilized with 0.2% Triton X-100 and blocked with 10% FCS. Fixed and permeabilized cells were treated overnight at 4° C. with either BRM primary antibody (Cell signaling Cat #11966) or BRG primary antibody (Abcam, ab 110641). Finally, cells were treated with fluorescently labeled secondary antibodies for 1 hr (Donkey anti-Rabbit IgG AF488, Life Technologies, A21206) and Hoechst nuclear stain (#H3569) was added for 30 minutes. Cells were washed with PBS in between each step and before imaging on an Opera Phenix microscope (Perkin Elmer). Harmony software (Perking Elmer) was used to quantify the mean nuclear signaling intensity of BRM or BRG signaling per cell in each well. Dose responses were determined from the concentration dependent response of mean nuclear signal intensity with data normalized to a known degrader control. Dose response curves were fit to a floating maximum to allow for calculation of the Dmax.
(§3) Note that, in Table 5, the “Compound Number” corresponds to that used in Table 1. In Table 5, for BRM and BRG1 IF degradation IC50 (μM): A indicates <0.010 μM, B indicates 0.010-0.10 μM, and C indicates >0.10 μM; and for BRM and BRG1 IF degradation Sinf % D indicates 0-−30%, E indicates −30%-−70%, F indicates −71%-−120% and ND indicates the value was not determined.

[2] = molecular target: BRM (Homo sapiens, UniProt P51531); assay: Immunofluorescence assay for BRM degradation in SW1573 cells; assay type: cell-based; set-up: treated overnight at 4° C. with either BRM primary antibody (Cell signaling Cat #11966) or BRG primary antibody; endogenous in cells; host or cells: SW1573; details: 20 hours incubation; for DC50: immunofluorescence mean nuclear signal, read-out: BRM IF Degradation IC50; for BRM IF Degradation Sinf (%): normalized to a known degrader control
BRM, sequence (P51531 whole entry): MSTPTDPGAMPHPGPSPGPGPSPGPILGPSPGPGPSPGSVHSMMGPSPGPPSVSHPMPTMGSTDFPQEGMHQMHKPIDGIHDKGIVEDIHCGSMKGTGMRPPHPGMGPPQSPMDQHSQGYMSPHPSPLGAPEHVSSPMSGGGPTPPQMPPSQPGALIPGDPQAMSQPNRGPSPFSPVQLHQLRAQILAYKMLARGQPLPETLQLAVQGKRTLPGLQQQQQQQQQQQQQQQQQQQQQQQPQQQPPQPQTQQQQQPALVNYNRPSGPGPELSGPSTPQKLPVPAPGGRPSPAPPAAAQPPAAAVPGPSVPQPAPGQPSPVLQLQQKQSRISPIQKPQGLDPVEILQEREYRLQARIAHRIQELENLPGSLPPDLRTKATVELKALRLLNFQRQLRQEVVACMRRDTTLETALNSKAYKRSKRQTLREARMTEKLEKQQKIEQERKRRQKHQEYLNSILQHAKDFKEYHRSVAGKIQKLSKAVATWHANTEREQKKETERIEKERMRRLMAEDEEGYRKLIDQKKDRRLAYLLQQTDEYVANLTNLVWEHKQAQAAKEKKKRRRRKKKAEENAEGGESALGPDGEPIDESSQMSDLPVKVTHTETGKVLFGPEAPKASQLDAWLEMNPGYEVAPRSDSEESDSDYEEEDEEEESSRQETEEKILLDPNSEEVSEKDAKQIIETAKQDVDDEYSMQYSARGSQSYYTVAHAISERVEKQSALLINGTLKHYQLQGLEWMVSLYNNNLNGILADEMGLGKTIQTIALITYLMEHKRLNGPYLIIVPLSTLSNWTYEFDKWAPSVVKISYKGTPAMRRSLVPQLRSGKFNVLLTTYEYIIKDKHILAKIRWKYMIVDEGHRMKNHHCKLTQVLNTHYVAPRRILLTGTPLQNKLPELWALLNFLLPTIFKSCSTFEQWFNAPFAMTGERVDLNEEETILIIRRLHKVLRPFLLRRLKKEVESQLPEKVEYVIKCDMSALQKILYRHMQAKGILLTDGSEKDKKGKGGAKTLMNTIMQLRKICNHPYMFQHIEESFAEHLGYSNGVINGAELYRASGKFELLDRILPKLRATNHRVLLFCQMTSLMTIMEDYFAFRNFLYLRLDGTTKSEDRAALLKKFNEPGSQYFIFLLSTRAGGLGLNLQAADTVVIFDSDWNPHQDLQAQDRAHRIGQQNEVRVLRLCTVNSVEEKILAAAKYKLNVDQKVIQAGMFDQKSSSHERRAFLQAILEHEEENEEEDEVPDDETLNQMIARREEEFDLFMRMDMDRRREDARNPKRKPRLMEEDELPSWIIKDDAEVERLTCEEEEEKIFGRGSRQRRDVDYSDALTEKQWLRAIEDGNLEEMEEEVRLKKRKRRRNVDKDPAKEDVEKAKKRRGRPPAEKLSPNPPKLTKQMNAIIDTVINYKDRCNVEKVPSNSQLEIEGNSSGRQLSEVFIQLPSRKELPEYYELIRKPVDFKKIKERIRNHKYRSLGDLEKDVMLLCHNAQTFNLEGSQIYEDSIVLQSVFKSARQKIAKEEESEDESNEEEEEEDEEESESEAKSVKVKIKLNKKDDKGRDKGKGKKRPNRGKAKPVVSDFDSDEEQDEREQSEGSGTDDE
Procedure: as §1, §2, §3

Structure (SMILES)	DC50 [1] [nM]	Dmax [1] [%]	DC50 [2] [nM]	BRM IF Degradation Sinf (%) [2]
Nc1nnc(-c2ccccc2O)cc1N1CC2CCC(C1)N2c1ccnc(C#CCN2CC(CO)(c3ccccc3)C2)c1 [Compound 179, 2-[6-amino-5-[8-[2-[3-[3-(hydroxymethyl)-3-phenyl-azetidin-1-yl]prop-1-ynyl]-4-pyridyl]-3,8-diazabicyclo[3.2.1]octan-3-yl]pyridazin-3-yl]phenol]	10 to 100	30 to 70	10 to 100	F (F indicates −71%-−120%)
Nc1nnc(-c2ccccc2O)cc1N1CC2CCC(C1)N2c1ccnc(C#CCN2C[C@@H]3[C@@H](CO)[C@@H]3C2)c1 [Compound 118, 2-[6-amino-5-[8-[2-[3-[(1S,5R)-6-(hydroxymethyl)-3-azabicyclo[3.1.0]hexan-3-yl]prop-1-ynyl]-4-pyridyl]-3,8-diazabicyclo[3.2.1]octan-3-yl]pyridazin-3-yl]phenol]	< 10	30 to 70	10 to 100	E (E indicates −30%-−70%)
CC1(O)CCN(CC#Cc2cc(N3C4CCC3CN(c3cc(-c5ccccc5O)nnc3N)C4)ccn2)C1 (centres unmarked) [Compound 62, 1-[3-[4-[3-[3-amino-6-(2-hydroxyphenyl)pyridazin-4-yl]-3,8-diazabicyclo[3.2.1]octan-8-yl]-2-pyridyl]prop-2-ynyl]-3-methyl-pyrrolidin-3-ol]	< 10	30 to 70	< 10	E (E indicates −30%-−70%)
Nc1nnc(-c2ccccc2O)cc1N1CC2CCC(C1)N2c1ccnc(C#CCN2CCCCC(F)C2)c1 (centres unmarked) [Compound 194, 2-[6-amino-5-[8-[2-[3-(3-fluoroazepan-1-yl)prop-1-ynyl]-4-pyridyl]-3,8-diazabicyclo[3.2.1]octan-3-yl]pyridazin-3-yl]phenol]	< 10	30 to 70	< 10	F (F indicates −71%-−120%)
COC[C@@H]1CCN1CC#Cc1cc(N2C3CCC2CN(c2cc(-c4ccccc4O)nnc2N)C3)ccn1 [Compound 186, 2-[6-amino-5-[8-[2-[3-[(2S)-2-(methoxymethyl)azetidin-1-yl]prop-1-ynyl]-4-pyridyl]-3,8-diazabicyclo[3.2.1]octan-3-yl]pyridazin-3-yl]phenol]	10 to 100	30 to 70	< 10	E (E indicates −30%-−70%)
COC(=O)C1CCN1CC#Cc1cc(N2C3CCC2CN(c2cc(-c4ccccc4O)nnc2N)C3)ccn1 (centres unmarked) [Compound 176, methyl 1-[3-[4-[3-[3-amino-6-(2-hydroxyphenyl)pyridazin-4-yl]-3,8-diazabicyclo[3.2.1]octan-8-yl]-2-pyridyl]prop-2-ynyl]azetidine-2-carboxylate]	> 100		10 to 100	E (E indicates −30%-−70%)
Nc1nnc(-c2ccccc2O)cc1N1CC2CCC(C1)N2c1ccnc(C#CCN2CC3CCC3C2)c1 (centres unmarked) [Compound 91, 2-[6-amino-5-[8-[2-[3-(3-azabicyclo[3.2.0]heptan-3-yl)prop-1-ynyl]-4-pyridyl]-3,8-diazabicyclo[3.2.1]octan-3-yl]pyridazin-3-yl]phenol]	< 10	30 to 70	< 10	E (E indicates −30%-−70%)
CC1CN(CC#Cc2cc(N3C4CCC3CN(c3cc(-c5ccccc5O)nnc3N)C4)ccn2)CCCC1O (centres unmarked) [Compound 196, 1-[3-[4-[3-[3-amino-6-(2-hydroxyphenyl)pyridazin-4-yl]-3,8-diazabicyclo[3.2.1]octan-8-yl]-2-pyridyl]prop-2-ynyl]-3-methyl-azepan-4-ol]	< 10	71 to 120	< 10	F (F indicates −71%-−120%)
Nc1nnc(-c2ccccc2O)cc1N1CC2CCC(C1)N2c1ccnc(C#CCN2CCC3CNCC32)c1 (centres unmarked) [Compound 146, 2-[5-[8-[2-[3-(3,3a,4,5,6,6a-hexahydro-2H-pyrrolo[3,4-b]pyrrol-1-yl)prop-1-ynyl]-4-pyridyl]-3,8-diazabicyclo[3.2.1]octan-3-yl]-6-amino-pyridazin-3-yl]phenol]	> 100	30 to 70	> 100	E (E indicates −30%-−70%)
CC1COCCN1CC#Cc1cc(N2C3CCC2CN(c2cc(-c4ccccc4O)nnc2N)C3)ccn1 (centres unmarked) [Compound 57, 2-[6-amino-5-[8-[2-[3-(3-methylmorpholin-4-yl)prop-1-ynyl]-4-pyridyl]-3,8-diazabicyclo[3.2.1]octan-3-yl]pyridazin-3-yl]phenol]	> 100		10 to 100	E (E indicates −30%-−70%)
Nc1nnc(-c2ccccc2O)cc1N1CC2CCC(C1)N2c1ccnc(C#CCN2CCC3(CCC3)C2)c1 [Compound 129, 2-[6-amino-5-[8-[2-[3-(6-azaspiro[3.4]octan-6-yl)prop-1-ynyl]-4-pyridyl]-3,8-diazabicyclo[3.2.1]octan-3-yl]pyridazin-3-yl]phenol]	< 10	30 to 70	< 10	E (E indicates −30%-−70%)
C[C@@H]1CN(CC#Cc2cc(N3C4CCC3CN(c3cc(-c5ccccc5O)nnc3N)C4)ccn2)C[C@H](C)O1 [Compound 59, 2-[6-amino-5-[8-[2-[3-[(2S,6R)-2,6-dimethylmorpholin-4-yl]prop-1-ynyl]-4-pyridyl]-3,8-diazabicyclo[3.2.1]octan-3-yl]pyridazin-3-yl]phenol]	< 10	0 to 30	10 to 100	E (E indicates −30%-−70%)
Nc1nnc(-c2ccccc2O)cc1N1CC2CCC(C1)N2c1ccnc(C#CCN2CC3(CCCC3)C2)c1 [Compound 155, 2-[6-amino-5-[8-[2-[3-(2-azaspiro[3.4]octan-2-yl)prop-1-ynyl]-4-pyridyl]-3,8-diazabicyclo[3.2.1]octan-3-yl]pyridazin-3-yl]phenol]	< 10	30 to 70	< 10	E (E indicates −30%-−70%)
Nc1nnc(-c2ccccc2O)cc1N1CC2CCC(C1)N2c1ccnc(/C=C/CN2CCCCCC2)c1 [Compound 248, (E)-2-(6-amino-5-(8-(2-(3-(azepan-1-yl)prop-1-en-1-yl)pyridin-4-yl)-3,8-diazabicyclo[3.2.1]octan-3-yl)pyridazin-3-yl)phenol]			< 10	E (E indicates −30%-−70%)
Nc1nnc(-c2ccccc2O)cc1N1CC2CCC(C1)N2c1ccnc(C#CCN2CCCN(c3ccncc3)CC2)c1 [Compound 204, 2-[6-amino-5-[8-[2-[3-[4-(4-pyridyl)-1,4-diazepan-1-yl]prop-1-ynyl]-4-pyridyl]-3,8-diazabicyclo[3.2.1]octan-3-yl]pyridazin-3-yl]phenol]			10 to 100	E (E indicates −30%-−70%)
CC1CCN(CC#Cc2cc(N3C4CCC3CN(c3cc(-c5ccccc5O)nnc3N)C4)ccn2)CCC1=O (centres unmarked) [Compound 198, 1-[3-[4-[3-[3-amino-6-(2-hydroxyphenyl)pyridazin-4-yl]-3,8-diazabicyclo[3.2.1]octan-8-yl]-2-pyridyl]prop-2-ynyl]-5-methyl-azepan-4-one]			< 10	E (E indicates −30%-−70%)
Nc1nnc(-c2ccccc2O)cc1N1CC2CCC(C1)N2c1ccnc(C#CCCN2CCCCC2)c1 [Compound 182, 2-[6-amino-5-[8-[2-[4-(1-piperidyl)but-1-ynyl]-4-pyridyl]-3,8-diazabicyclo[3.2.1]octan-3-yl]pyridazin-3-yl]phenol]			> 100	F (F indicates −71%-−120%)
CC1(C)CC(O)CCN(CC#Cc2cc(N3C4CCC3CN(c3cc(-c5ccccc5O)nnc3N)C4)ccn2)C1 (centres unmarked) [Compound 213, 1-[3-[4-[3-[3-amino-6-(2-hydroxyphenyl)pyridazin-4-yl]-3,8-diazabicyclo[3.2.1]octan-8-yl]-dimethyl-azepan-4-ol 2-pyridyl]prop-2-ynyl]-6,6-]			10 to 100	E (E indicates −30%-−70%)
Nc1nnc(-c2ccccc2O)cc1N1CC2CCC(C1)N2c1ccnc(C#CCN2CC3C4CCC(C4)C32)c1 (centres unmarked) [Compound 220, 2-[6-amino-5-[8-[2-[3-(3-azatricyclo[4.2.1.02,5]nonan-3-yl)prop-1-ynyl]-4-pyridyl]-3,8-diazabicyclo[3.2.1]octan-3-yl]pyridazin-3-yl]phenol]			> 100	E (E indicates −30%-−70%)
